Here are results for 13 molecules from patent US5466691A, “Thiophene compound” (Yoshitomi Pharmaceutical Industries, Ltd., priority 1991, dated 1995).

The subject of data set [1] is ddY mice. As to the kind of experiment: Acute toxicity. Type of data set: in vivo. The following applies: 5 days.
Data set [2] concerns the target T1, serotonin 1A (5-HT1A) receptor (Rattus norvegicus, UniProt P19327).
T1 construct: A crude synaptosome fraction was separated from hippocampus; from tissue; host or cells: hippocampus of Wistar rat, crude synaptosome fraction
T1 sequence (P19327 1-422): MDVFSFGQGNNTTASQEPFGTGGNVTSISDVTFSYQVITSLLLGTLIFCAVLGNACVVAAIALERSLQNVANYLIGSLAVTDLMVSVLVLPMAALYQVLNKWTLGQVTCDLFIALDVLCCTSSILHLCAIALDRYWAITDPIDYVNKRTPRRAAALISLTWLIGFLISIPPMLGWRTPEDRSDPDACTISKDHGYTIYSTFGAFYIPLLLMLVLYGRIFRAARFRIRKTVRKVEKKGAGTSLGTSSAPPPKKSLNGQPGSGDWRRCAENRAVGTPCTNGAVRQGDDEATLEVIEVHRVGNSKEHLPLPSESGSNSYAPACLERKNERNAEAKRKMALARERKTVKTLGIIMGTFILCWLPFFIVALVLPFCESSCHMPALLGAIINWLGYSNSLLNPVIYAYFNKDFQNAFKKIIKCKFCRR
As to the kind of experiment: Affinity for serotonin 1A receptor ([3H]8-OH-DPAT binding, crude synaptosome fraction of hippocampus). The following applies: tritiated 8-OH-DPAT 0.2 nM, pH 7.4, 37° C., 12 minutes, read-out: binding 5-HT1A, inhibition constant (Ki value). The procedure: Experiment Example 2: Affinity for serotonin 1A receptor
A specific binding of serotonin 1A (5-HT1A) receptor was tested according to the method described in J. Neurochem. 44, 1685 (1985).
(§1) A crude synaptosome fraction was separated from hippocampus of 9-10 weeks old Nistar rat, and suspended in 50 mM Tris-HCl buffer (pH 7.4) containing 1 mM manganese chloride for use in the test. The test compound at several concentrations and tritiated 8-hydroxy-2-dipropylaminotctralin (8-OH-DPAT, final concentration 0.2 nM) were added to the synaptosome suspension, and each mixture was reacted at 37° C. for 12 minutes. After the reaction, the reaction mixture was filtered with suction through a Whatman GF/B glass filter. The filter was washed with 50 mM Tris-HCl buffer (pH 7.7), and the radioactivity of the filter was measured by a liquid scintillation counter. Non-specific binding was determined in the presence of 10^-5 M serotonin (5HT). The concentration necessary for 50% inhibition (IC50) was determined on a graph, and inhibition constant (Ki value) was calculated.

Data set [3] has as its system apomorphine. As to the kind of experiment: Anti-apomorphine action (mouse). It counts as in vivo. The settings on record: 1 h before apomorphine, read-out: anti-apomorphine effect ED50. The procedure:
The test compound was orally administered to the mice, and 60 minutes later, 0.5 mg/kg of apomorphine hydrochloride was subcutaneously administered. The movement for 20 minutes from immediately after the administration was measured using Balimex (Columbus, USA).

Data set [4] concerns the target T2, dopamine 2 (D2) receptor (Rattus norvegicus, UniProt P61169).
T2 construct: A synaptosome fraction was separated from corpus striatum; from tissue; host or cells: corpus striatum of Wistar rat, synaptosome fraction
The experiment in a line: Affinity for dopamine 2 receptor ([3H]spiperone binding, synaptosome fraction of corpus striatum). Set-up: species or system Wistar rat. The following applies: tritiated spiperone 0.2 nM, 37° C., 20 minutes, read-out: binding D2, inhibition constant (Ki value). As for the experimental part: Experiment Example 1: Affinity for dopamine 2 receptor
A specific binding of dopamine 2 (D2) receptor was tested according to the method described in Eur. J. Pharmacol. 46, 377 (1977).
A synaptosome fraction was separated from corpus striatum of 9-10 weeks old Wistar rat, and suspended in 50 mM Tris-HCl buffer (pH 7.1) containing 120 mM sodium chloride, 5 mM potassium chloride, 2 mM calcium chloride, 1 mM magnesium chloride, 10 μM pargyline and 0.1% ascorbic acid for use in the test.
as §1, with “The” for “A crude synaptosome fraction was separated from hippocampus of 9-10 weeks old Nistar rat, and suspended in 50 mM Tris-HCl buffer (pH 7.4) containing 1 mM manganese chloride for use in the test. The”, “spiperone (final” for “8-hydroxy-2-dipropylaminotctralin (8-OH-DPAT, final”, “20” for “12”, “10^-4 M(±)-sulpiride.” for “10^-5 M serotonin (5HT).”

The target of data set [5] is T3, serotonin 2 (5-HT2) receptor (Rattus norvegicus, UniProt P14842).
T3 construct: A crude synaptosome fraction was separated from hippocampus; from tissue; host or cells: hippocampus of Wistar rat, crude synaptosome fraction
T3 sequence (P14842 whole entry): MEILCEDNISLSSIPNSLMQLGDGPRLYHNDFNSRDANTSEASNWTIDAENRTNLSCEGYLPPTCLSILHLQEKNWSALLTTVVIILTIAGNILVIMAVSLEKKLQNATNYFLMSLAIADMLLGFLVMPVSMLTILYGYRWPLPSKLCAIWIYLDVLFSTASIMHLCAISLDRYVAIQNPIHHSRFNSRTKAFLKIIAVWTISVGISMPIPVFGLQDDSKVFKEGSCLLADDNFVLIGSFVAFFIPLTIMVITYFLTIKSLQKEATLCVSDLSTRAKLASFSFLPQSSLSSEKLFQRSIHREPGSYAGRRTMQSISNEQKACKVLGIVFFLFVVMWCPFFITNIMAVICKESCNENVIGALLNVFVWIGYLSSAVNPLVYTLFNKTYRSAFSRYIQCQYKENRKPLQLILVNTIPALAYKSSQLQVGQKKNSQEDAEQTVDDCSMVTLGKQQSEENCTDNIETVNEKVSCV
As to the kind of experiment: Affinity for serotonin 2 receptor ([3H]ketanserin binding, crude synaptosome fraction of hippocampus). Set-up: species or system Wistar rat. The settings on record: tritiated ketanserin 0.2 nM, pH 7.7, 37° C., 20 minutes, read-out: binding 5-HT2, inhibition constant (Ki value). The procedure: Experiment Example 3: Affinity for serotonin 2 receptor
A specific binding of serotonin 2 (5-HT2) receptor was tested according to the method described in Mol. Pharmacol. 21, 301 (1981).
A crude synaptosome fraction was separated from hippocampus of 9-10 weeks old Wistar rat, and suspended in 50 mM Tris-HCl buffer (pH 7.7) for use in the test. The test compound at several concentrations and tritiated ketanserin (final concentration 0.2 nM) were added to the synaptosome suspension, and each mixture was incubated at 37° C. for 20 minutes. After the incubation, the mixture was filtered with suction through a Whatman GF/B glass filter. The filter was washed with 50 mM Tris-HCl buffer (plt 7.7), and the radioactivity of the filter was measured by a liquid scintillation counter. Non-specific binding was determined in the presence of 10^-5 M mianserin. The concentration necessary for 50% inhibition (IC50) was determined on a graph, and inhibition constant (Ki value) was calculated.

Like-named read-outs stand apart in the source and are kept apart here.

T2 sequence (P61169 whole entry): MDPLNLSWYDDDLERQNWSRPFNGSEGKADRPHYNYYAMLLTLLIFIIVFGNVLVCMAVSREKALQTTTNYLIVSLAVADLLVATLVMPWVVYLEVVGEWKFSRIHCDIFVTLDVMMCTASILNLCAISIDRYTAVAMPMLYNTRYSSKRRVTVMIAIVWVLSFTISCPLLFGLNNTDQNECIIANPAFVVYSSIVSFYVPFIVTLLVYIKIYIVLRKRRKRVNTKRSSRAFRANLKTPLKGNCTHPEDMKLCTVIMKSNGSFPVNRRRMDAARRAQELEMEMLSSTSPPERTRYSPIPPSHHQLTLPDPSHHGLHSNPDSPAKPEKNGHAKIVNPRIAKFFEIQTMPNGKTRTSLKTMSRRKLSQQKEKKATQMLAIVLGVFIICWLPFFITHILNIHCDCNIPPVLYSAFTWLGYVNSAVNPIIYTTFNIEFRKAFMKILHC

For `CC(=O)c1ccc(SCCCN2CCN(c3cccc(C)c3C)CC2)s1` [Example 4, 1(3-((5-acetyl-2-thienyl)thio)propyl)-4-(2,3-dimethylphenyl)piperazine], the death result in data set [1] (100 mg/kg intraperitoneally, 5 male ddY mice) was “No death was observed”; in data set [1] (300 mg/kg orally) it was “no death was observed”.

Turning to `CC(=O)c1ccc(SCCCN2CCN(c3nsc4ccccc34)CC2)s1` [Example 21, 3-(4-(3-((5-acctyl-2-thicnyl)thio)propyl)-l-piperadinyl)1,2-benzisothiazole], the Ki (commonly a dissociation constant, usually derived from enzyme kinetics or from competition with a known ligand) is 0.12 nM in data set [2], 1.3 nM in data set [4] and 0.59 nM in data set [5]. Moreover, the ED50 – broadly, the dose that gives a 50% effect, or the effect in half of the subjects – in data set [3] (po) worked out at 35 mg/kg.

Consider `CC(=O)c1ccc(SCCCN2CCC(c3noc4cc(F)ccc34)CC2)s1` [Example 36, 3-(1-(3-((5-acctyl-2-thienyl)thio)propyl)piperidin-4-yl)-6-fluoro-1,2-benzisoxazole], for which the Ki was 0.75 nM in data set [2], 0.61 nM in data set [4] and 1.3 nM in data set [5]. In addition, the ED50 in data set [3] (po) was determined as 3.4 mg/kg.

As for `CC(=O)Nc1ccc(SCCCN2CCC(c3noc4cc(F)ccc34)CC2)s1` [Example 40, 3-(1-(3-((5-acetylamino-2-thienyl)thio)propyl)piperidin-4-yl) -6-fluoro-1,2-benzisoxazole], the Ki in data set [2] turned out to be 0.35 nM; in data set [4] it was 0.71 nM; in data set [5] it was 0.45 nM. Also, in data set [3] (po), the ED50 was 1 mg/kg.

For `CC(=O)NCc1ccc(SCCCN2CCC(c3noc4cc(F)ccc34)CC2)s1` [Example 93, 3-(1-(3-((5-acetylaminomethyl-2-thienyl)thio)propyl)-piperidin-4-yl)-6-fluoro-1,2-benzisoxazole], the values for the Ki in data set [2], in data set [4] and in data set [5] were 26 nM, 0.8 nM and 0.79 nM, respectively. Also, the ED50 in data set [3] (po) worked out at 2.9 mg/kg.

In the case of `CC(=O)NCc1ccc(C(=O)CCCN2CCC(c3noc4cc(F)ccc34)CC2)s1` [Example 95, 3-(1-(4-(5-acetylaminomethyl-2-thienyl)-4-oxobutyl)piperidin-4-yl)-6-fluoro-1,2-benzisoxazole], the Ki in data set [2] came to 140 nM; in data set [4], 2.5 nM; in data set [5] it was 0.059 nM. Besides, the ED50 in data set [3] (po) was 2.6 mg/kg.

As to `CC(=O)NCc1ccc(CCCCN2CCC(c3noc4cc(F)ccc34)CC2)s1` [Example 108, 3-(1-(4-(5-acetylaminomethyl-2-thienyl)butyl)piperidin-4-yl) -6-fluoro-1,2-benzisoxazole], the Ki in data set [2] was 56 nM; in data set [4], 2 nM; in data set [5], 2.1 nM. The ED50 in data set [3] (po) worked out at 0.41 mg/kg.

For the molecule `CC(=O)NCc1ccc(CCN2CCC(c3noc4cc(F)ccc34)CC2)s1` [Example 119, 3-(1-(2-(5-acetylaminomethyl-2-thicnyl)ethyl)piperidin-4-yl)-6-fluoro-1,2-benzisoxazole], the inhibition constant (Ki) in data set [2] stood at 14 nM; in data set [4], 3.8 nM; in data set [5], 0.65 nM. The ED50 in data set [3] (po) worked out at 0.16 mg/kg.

As for `CC(=O)NCc1sc(CCN2CCC(c3noc4cc(F)ccc34)CC2)cc1C` [Example 151, 3-(1-(2-(5-acetylaminomethyl-4-methyl-2-thienyl)ethyl)-piperadin-4-yl)-6-fluoro-1,2-benzisoxazole], the figures for the Ki in data set [2], in data set [4] and in data set [5] were 15 nM, 3.8 nM and 0.099 nM, respectively. Further, the ED50 in data set [3] (male dd mice, oral, 60 minutes before 0.5 mg/kg s.c. apomorphine hydrochloride, movement for 20 minutes) came out at 0.76 mg/kg.

As to `CC(=O)NCc1cc(CCN2CCC(c3noc4cc(F)ccc34)CC2)c(C)s1` [Example 155, 3-(1-(2-(5-acetylaminomethyl-2-methyl-3-thienyl)ethyl)-piperidin-4-yl)-6-fluoro-1,2-benzisoxazole], the Ki in data set [2] is above 100 nM; in data set [4], 1.4 nM; in data set [5] it was 0.37 nM. In data set [3] (po), the median effective dose (ED50) was 1.2 mg/kg.

Consider `CC(=O)NCCc1ccc(CCN2CCC(c3noc4cc(F)ccc34)CC2)s1` [Example 158, 3-(1-(2-(5-(2-acetylaminoethyl)-2-thienyl)ethyl)piperidin-4-yl) -6-fluoro-1,2-benzisoxazole], for which the Ki in data set [2] came out at 16 nM; in data set [4], 0.94 nM; in data set [5] it was 0.13 nM. The ED50 in data set [3] (po) was 0.14 mg/kg.

With `CC(=O)NCCc1sc(CCN2CCC(c3noc4cc(F)ccc34)CC2)cc1Br` [Example 159, 3-(1-(2-(5-(2-acetylaminoethyl)-4-bromo-2-thienyl)ethyl)-piperidin-4-yl) -6-fluoro-1,2-benzisoxazole], the inhibition constant (Ki) was found to be 12 nM in data set [2], 0.5 nM in data set [4] and 0.047 nM in data set [5]. Further, the ED50 in data set [3] (po) is 0.53 mg/kg.

`NCc1ccc(CCCCN2CCC(c3noc4cc(F)ccc34)CC2)s1` [Example 165, 3-(1-(4-(5-aminomethyl-2-thienyl)butyl)piperidin-4-yl)-6-fluoro-1,2-benzisoxazole]: the values for the Ki in data set [2], in data set [4] and in data set [5] were 1.7 nM, 0.69 nM and 1.3 nM, respectively. The 50% effective dose (ED50) in data set [3] (po) turned out to be 0.24 mg/kg.
